The supplement of paper PMC10307832

Columns and labels:
Test in all cases: relative viability (nuclei count vs DMSO), 5 days (fraction); higher = more cells survive
AZ628 + Palbociclib = compound: CC1=C(C=C(C=C1)NC(=O)C2=CC(=CC=C2)C(C)(C)C#N)NC3=CC4=C(C=C3)N=CN(C4=O)C [AZ628] + CC(=O)c1c(C)c2cnc(Nc3ccc(N4CCNCC4)cn3)nc2n(C2CCCC2)c1=O [Palbociclib] (partner 0.5 µM)
In short: (§1)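 Dosing by pin tool came one day after lung cancer cell lines were seeded in 1536-well plates, using either one drug or a fixed anchor-drug dose plus five library-drug doses (not always all listed) in √10 steps. After 5 days, nuclei were counted on 4× images. Relative viability is treated-well nuclei count divided by vehicle-well nuclei count, and values are medians of duplicate plates.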

AZ628 + Vorinostat = compound: CC1=C(C=C(C=C1)NC(=O)C2=CC(=CC=C2)C(C)(C)C#N)NC3=CC4=C(C=C3)N=CN(C4=O)C [AZ628] + O=C(CCCCCCC(=O)Nc1ccccc1)NO [Vorinostat] (partner 1 µM)
In short: as §1

[1] = compound: C[As](C)SC[C@H](NC(=O)CC[C@H](N)C(=O)O)C(=O)NCC(=O)O [Darinaparsin] + C[C@]1(O)C[C@@H](c2nc(-c3ccc4ccc(-c5ccccc5)nc4c3)c3c(N)nccn32)C1 [Linsitinib] (partner 1 µM)
In short: as §1

AZ628 + Linsitinib = compound: CC1=C(C=C(C=C1)NC(=O)C2=CC(=CC=C2)C(C)(C)C#N)NC3=CC4=C(C=C3)N=CN(C4=O)C [AZ628] + C[C@]1(O)C[C@@H](c2nc(-c3ccc4ccc(-c5ccccc5)nc4c3)c3c(N)nccn32)C1 [Linsitinib] (partner 1 µM)
In short: as §1

Cell Line | relative viability (AZ628 + Palbociclib; first compound 0.08 µM) | relative viability (AZ628 + Palbociclib; first compound 0.253 µM) | relative viability (AZ628 + Palbociclib; first compound 0.8 µM) | relative viability (AZ628 + Palbociclib; first compound 2.53 µM) | relative viability (AZ628 + Palbociclib; first compound 8 µM) | relative viability (AZ628 + Vorinostat; first compound 0.08 µM) | relative viability (AZ628 + Vorinostat; first compound 0.253 µM) | relative viability (AZ628 + Vorinostat; first compound 0.8 µM) | relative viability (AZ628 + Vorinostat; first compound 2.53 µM) | relative viability (AZ628 + Vorinostat; first compound 8 µM) | relative viability ([1]; first compound 0.08 µM) | relative viability ([1]; first compound 0.8 µM) | relative viability ([1]; first compound 2.53 µM) | relative viability ([1]; first compound 8 µM) | relative viability (AZ628 + Linsitinib; first compound 0.08 µM) | relative viability (AZ628 + Linsitinib; first compound 0.253 µM) | relative viability (AZ628 + Linsitinib; first compound 0.8 µM) | relative viability (AZ628 + Linsitinib; first compound 2.53 µM) | relative viability (AZ628 + Linsitinib; first compound 8 µM)
NCI-H1395 | 0.614 | 0.612 | 0.622 | 0.609 | 0.631 | 0.936 | 0.61 | 0.665 | 0.62 | 0.607 | 1.01 | 0.995 | 0.97 | 0.991 | 1.21 | 1.18 | 1.23 | 1.07 | 1.05
SW 1573 | 0.409 | 0.312 | 0.275 | 0.291 | 0.173 | 1.01 | 0.641 | 0.592 | 0.575 | 0.508 | 0.935 | 0.811 | 0.874 | 0.906 | 0.599 | 0.725 | 0.661 | 0.632 | 0.412
NCI-H441 | 0.184 | 0.18 | 0.147 | 0.145 | 0.151 | 0.782 | 0.749 | 0.67 | 0.673 | 0.68 | 0.755 | 0.506 | 0.497 | 0.47 | 0.64 | 0.494 | 0.549 | 0.425 | 0.396
HCC-366 | 0.383 | 0.352 | 0.328 | 0.445 | 0.163 | 0.404 | 0.39 | 0.399 | 0.255 | 0.396 | 0.969 | 0.609 | 0.427 | 1.06 | 0.551 | 0.454 | 0.426 | 0.543 | 0.114
NCI-H1915 | 0.398 | 0.392 | 0.316 | 0.316 | 0.205 | 0.549 | 0.606 | 0.537 | 0.461 | 0.462 | 1.11 | 1.09 | 1.03 | 1.13 | 1.08 | 1.11 | 1.07 | 0.85 | 0.683
